By IC50 is commonly meant the midpoint of a concentration-inhibition curve.

Structures are written as SMILES. Where two headings read alike, the source gives them in different places.

Our source for the IC50 values is US11524962B2, “Substituted pyrrolo[2,3-d]pyrimidines as inhibitors of protein arginine methyl transferase 5 (PRMT5)” (PRELUDE THERAPEUTICS, INCORPORATED, priority 2017, dated 2022).

In test [1] the test system is Granta-519 cells. The test can be described thus: Cell proliferation assay in Granta-519 cells. The class given is cell-based. Particulars: Homo sapiens. Here is the method: Granta-519 cells were maintained in PRMI 1640 (Corning Cellgro, Catalog #: 10-040-CV) medium supplemented with 10% v/v FBS (GE Healthcare, Catalog #: SH30910.03). Compounds were dissolved in DMSO to make 10 mM stocks and stored at −20° C. Nine-point, 3-fold serial dilutions were made with DMSO with top concentration at 1 mM (working stocks).
On day of experiment, compound working stocks were further diluted at 1:50 with fresh medium in 96 well plate, and 10 μL of diluted drugs were added to a new 96 well plate for proliferation assay. Cells growing at exponential phase were spun down at 1500 rpm for 4 min and resuspend in fresh medium to reach a density of 0.5×10^6 cells/ml. 200 ul of cells were added to 96 well plate containing diluted drugs and incubated for 3 days. DMSO was used a vehicle control.
On day 3, 10 μL of Cell Counting Kit-8 (CCK-8, Jojindo, CK04-13) solution was added to a new 96 well plate. Cells incubated with drugs for 3 days were resuspended by pipetting up and down, and 100 μL of cells were transferred to 96 well plate containing CCK-8 reagent to measure viable cells. Plates were incubated in CO2 incubator for 2 hours and OD450 values were measured with a microplate reader (iMark microplate reader, Bio-Rad).
For re-plating, compound working stocks were diluted at 1:50 with fresh medium and 10 μL of diluted drugs were added to a new 96 well plate. Cells from Day 3 plate (50 ul) were added to 96 well plate containing fresh drug and additional 150 μL of fresh medium was added to reach 200 μL volume. Plate was returned to CO2 incubator and incubated for 3 more days. Viable cells measurement and re-plating were repeated on day 6, and the final viable cells measurement was taken on day 10.
Percentage of viable cells, relative to DMSO vehicle control, were calculated and plotted in Graphpad Prism ([Inhibitor]vs. normalized response−Variable slope) to determine proliferation IC50 values on day 10.
One day before experiment, Granta-519 cells were passaged to a density of 0.5×10^6 cells/ml. U-87 MG cells were trypsinized and 2,000 cells were seeded into 96-well plates and allow to grow overnight. On the day of experiment (day 0), Granta-519 Cells were spun down at 1,500 rpm for 4 min, resuspended in fresh medium to 0.5×10^6 cells/ml and 190 ul of cells were added to 96 well plates. For U-87 MG cells, old medium was removed and replaced with 190 uL fresh medium. Compound working stocks were first diluted at 1:50 with fresh medium in 96 well plate and 10 μL of diluted drugs were added to 96 well plates containing cells and incubated for 3 days. DMSO was used a vehicle control.
One day 3, 50 uL of Granta-519 cells were transferred to a new 96-well plate and 140 uL fresh medium was added. For U-87 MG cells, old medium was removed and replaced with 190 uL fresh medium. Compound working stocks were freshly diluted at 1:50 with medium and 10 μL of diluted drugs were added to cells and grow for 3 additional days. The same process was repeated on day 6. Cells were allowed to grow for additional 4 days.
On day 10, 100 uL Granta-519 cells were transferred to a new 96 well plate and 10 μL of Cell Counting Kit-8 (CCK-8, Jojindo, CK04-13) solution was added. For U-87 MG cells, old medium was removed and replaced with 100 uL fresh medium and 10 uL CCK-8 solution was added. Plates were incubated in CO2 incubator for 2 hours (Granta-519 cells) or 30 min (U-87 MG cells) and OD450 values were measured with a microplate reader (iMark microplate reader, Bio-Rad). Percentage of viable cells, relative to DMSO vehicle control, were calculated and plotted in Graphpad Prism ([Inhibitor]vs. normalized response−Variable slope) to determine proliferation IC50 values on day 10.
These cell proliferation procedures produced the data in Table 7.

Test [2] deals with PRMT5/MEP50 complex (Homo sapiens (Human), UniProt O14744). The test can be described thus: HotSpot Assay. Format: biochemical. Here is the method:
HotSpot Assay. Compounds were solubilized and 3-fold diluted in 100% DMSO. […] Standard reactions were performed in a total volume of 50 μl in assay buffer, with histone H2A (5 μM final) as substrate. To this was added the PRMT5/MEP50 complex diluted to provide a final assay concentration of 5 nM and the compounds were allowed to preincubate for 15 to 20 minutes at room temperature. The reaction was initiated by adding S-[3H-methyl]-adenosyl-L-methionine (PerkinElmer) to final concentration of 1 μM. Following a 60 minutes incubation at 30° C., the reaction was stopped by adding 100 μL of 20% TCA. Each reaction was spotted onto filter plate (MultiScreen FB Filter Plate, Millipore), and washed 5 times with PBS buffer, Scintillation fluid was added to the filter plate and read in a scintillation counter. IC50 values were determined by fitting the data to the standard 4 parameters with Hill Slope using GraphPad Prism software. This procedure generated the HotSpot data in Table 7.

[3] abbreviates: 240 h, Granta-519, day 10, read-out: Prolif_Granta IC50.

Chain of PRMT5/MEP50 complex (O14744 whole entry): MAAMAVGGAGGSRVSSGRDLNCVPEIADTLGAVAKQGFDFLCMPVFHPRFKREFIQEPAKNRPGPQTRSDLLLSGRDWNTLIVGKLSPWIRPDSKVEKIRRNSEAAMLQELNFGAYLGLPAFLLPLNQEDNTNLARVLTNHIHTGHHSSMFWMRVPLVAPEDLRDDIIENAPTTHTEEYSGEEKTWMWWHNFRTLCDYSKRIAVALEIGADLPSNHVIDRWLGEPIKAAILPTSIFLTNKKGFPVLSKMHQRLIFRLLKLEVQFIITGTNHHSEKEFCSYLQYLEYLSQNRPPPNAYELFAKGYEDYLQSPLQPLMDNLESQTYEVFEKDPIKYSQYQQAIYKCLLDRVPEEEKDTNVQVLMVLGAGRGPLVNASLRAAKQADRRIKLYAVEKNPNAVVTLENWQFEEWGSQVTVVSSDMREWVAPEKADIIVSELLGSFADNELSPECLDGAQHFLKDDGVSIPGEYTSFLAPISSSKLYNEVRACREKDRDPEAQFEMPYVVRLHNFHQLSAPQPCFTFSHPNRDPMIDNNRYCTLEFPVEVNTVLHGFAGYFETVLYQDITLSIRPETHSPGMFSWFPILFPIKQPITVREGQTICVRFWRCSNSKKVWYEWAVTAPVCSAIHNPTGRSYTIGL
Chain of PRMT5/MEP50 complex (Q9BQA1 whole entry partner): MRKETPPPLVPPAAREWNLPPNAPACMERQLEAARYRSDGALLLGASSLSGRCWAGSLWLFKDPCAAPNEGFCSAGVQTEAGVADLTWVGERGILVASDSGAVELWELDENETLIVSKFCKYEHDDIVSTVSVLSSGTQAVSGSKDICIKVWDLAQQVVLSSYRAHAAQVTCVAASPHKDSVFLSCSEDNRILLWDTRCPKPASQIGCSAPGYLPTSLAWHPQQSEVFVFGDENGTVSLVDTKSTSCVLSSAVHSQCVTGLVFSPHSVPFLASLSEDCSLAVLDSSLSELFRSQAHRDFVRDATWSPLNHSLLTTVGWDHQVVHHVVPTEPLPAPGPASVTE

For `C[C@@](O)(c1ccc2c(c1)CC2)[C@H]1O[C@@H](n2ccc3c(N)ncnc32)[C@H](O)[C@@H]1O` [Example 1, (2R,3R,4S,5S)-2-(4-amino-7H-pyrrolo[2,3-d]pyrimidin-7-yl)-5-((R)-1-(bicyclo[4.2.0]octa-1(6),2,4-trien-3-yl)-1-hydroxyethyl)tetrahydrofuran-3,4-diol], the IC50 in test [1] (setting [3]) amounted to 38 nM; in test [1] (Granta-519, initial testing, read-out: Prolif_(Granta) IC50) it was 28 nM; in test [2] it was 3 nM.

Take `Nc1ncnc2c1ccn2[C@@H]1O[C@H]([C@H](O)c2ccc3c(c2)CC3)[C@@H](O)[C@H]1O` [Example 2, (2R,3R,4S,5R)-2-(4-amino-7H-pyrrolo[2,3-d]pyrimidin-7-yl)-5-((R)-bicyclo[4.2.0]octa-1(6),2,4-trien-3-yl(hydroxy)methyl)tetrahydrofuran-3,4-diol]: the IC50 in test [1] (setting [3]) came out at 35 nM; in test [2], 2 nM.

With `Nc1ncnc2c1c(F)cn2[C@@H]1O[C@H]([C@H](O)c2ccc3c(c2)CC3)[C@@H](O)[C@H]1O` [Example 6, (2R,3R,4S,5R)-2-(4-amino-5-fluoro-7H-pyrrolo[2,3-d]pyrimidin-7-yl)-5-((R)-bicyclo[4.2.0]octa-1(6),2,4-trien-3-yl(hydroxy)methyl)tetrahydrofuran-3,4-diol], the IC50 in test [1] (setting [3]) amounted to 67 nM; in test [2], 0.7 nM.

Regarding `Cc1ncnc2c1ccn2[C@@H]1O[C@H]([C@H](O)c2ccc3c(c2)CC3)[C@@H](O)[C@H]1O` [Example 11, (2R,3S,4R,5R)-2-((R)-bicyclo[4.2.0]octa-1(6),2,4-trien-3-yl(hydroxy)methyl)-5-(4-methyl-7H-pyrrolo[2,3-d]pyrimidin-7-yl)tetrahydrofuran-3,4-diol], the IC50 in test [1] (setting [3]) came to 92 nM; in test [2] it was 3 nM.

Turning to `Nc1ncnc2c1c(Br)cn2[C@@H]1O[C@H]([C@H](O)c2ccc3c(c2)CC3)[C@@H](O)[C@H]1O` [Example 36, (2R,3R,4S,5R)-2-(4-amino-5-bromo-7H-pyrrolo[2,3-d]pyrimidin-7-yl)-5-((R)-bicyclo[4.2.0]octa-1,3,5-trien-3-yl(hydroxy)methyl)tetrahydrofuran-3,4-diol], the values for the IC50 in test [1] (setting [3]) and in test [2] were 1100 nM and 11 nM, respectively.

For `Cc1ncnc2c1ccn2[C@@H]1O[C@H]([C@H](O)c2nc3c(s2)CCC3)[C@@H](O)[C@H]1O` [Example 52, (2S,3S,4R,5R)-2-((S)-(5,6-dihydro-4H-cyclopenta[d]thiazol-2-yl)(hydroxy)methyl)-5-(4-methyl-7H-pyrrolo[2,3-d]pyrimidin-7-yl)tetrahydrofuran-3,4-diol], the IC50 turned out to be 396 nM in test [1] (setting [3]) and 9 nM in test [2].

In the case of `OCCc1ncnc2c1ccn2[C@@H]1O[C@H]([C@H](O)c2ccc3c(c2)CC3)[C@@H](O)[C@H]1O` [Example 53, (2R,3S,4R,5R)-2-((R)-bicyclo[4.2.0]octa-1,3,5-trien-3-yl(hydroxy)methyl)-5-(4-(2-hydroxyethyl)-7H-pyrrolo[2,3-d]pyrimidin-7-yl)tetrahydrofuran-3,4-diol], the IC50 amounted to 10000 nM in test [1] (setting [3]) and 164 nM in test [2].

For the compound `CNc1ncnc2c1ccn2[C@@H]1O[C@H]([C@H](O)c2ccc3c(c2)CC3)[C@@H](O)[C@H]1O` [Example 54, (2R,3S,4R,5R)-2-((R)-bicyclo[4.2.0]octa-1(6),2,4-trien-3-yl(hydroxy)methyl)-5-(4-(methylamino)-7H-pyrrolo[2,3-d]pyrimidin-7-yl)tetrahydrofuran-3,4-diol], the IC50 in test [1] (setting [3]) was 1010 nM.

As for `O[C@@H]1[C@H](O)[C@@H]([C@H](O)c2ccc3c(c2)CC3)O[C@H]1n1ccc2c(Cl)ncnc21` [Example 56, (2R,3S,4R,5R)-2-((R)-bicyclo[4.2.0]octa-1(6),2,4-trien-3-yl(hydroxy)methyl)-5-(4-chloro-7H-pyrrolo[2,3-d]pyrimidin-7-yl)tetrahydrofuran-3,4-diol], the IC50 in test [1] (setting [3]) worked out at 50000 nM.
